Consider two molecules from patent US7649113B2, “Mono, di and tri cyclic compounds useful for lowering IgE concentrations” (The Research Foundation of State University of New York, priority 2003, dated 2010).

For data set [1], the system named is IgE production. The data set can be described thus: Suppression of human IgE production in vitro. Format: cell-based.
Data set [2] deals with PBMC (peripheral blood mononuclear cells). Particulars: patient PBMC; dose dependent manner; cited from earlier work.
Data set [3] concerns normal mouse spleen cells. Particulars: cited from earlier work.
For another data set, the system named is dogs. Particulars: cited from earlier work.
A further data set concerns mice. Particulars: cited from earlier work.
Data set [4] relates to IgE production. The data set can be described thus: Suppression of human IgE production in vivo.
Data set [5] relates to IgE production. The data set can be described thus: Suppression of murine IgE production in vivo.
The test system of data set [6] is allergic steroid dependent asthmatic patients. The following applies: oral administration; cited from earlier work.
For data set [7], the system named is human whole blood cultures. Particulars: physiological doses; cited from earlier work.
In data set [8] the test system is inducible nitric oxide synthase (iNOS). Particulars: murine macrophages; cited from earlier work.
Data set [9] deals with rheumatoid arthritis (RA) patients. The following applies: cited from earlier work.

`C[C@H]1c2cccc(O)c2C(=O)C2=C(O)[C@]3(O)C(=O)C(C(N)=O)=C(O)[C@@H](N(C)C)[C@@H]3[C@@H](O)[C@@H]21` [doxycycline]: the “human IgE production” value in the data set with IgE production [1] was “suppresses”. In addition, the “anti-CD40 rhIL-4 mediated in vitro induction of IgE responses” value in [2] is given as “suppress”. Besides, in data set [3], the “PHA/IL-4 mediated IgE response” value is recorded as “suppresses”. Further, the “severity of osteoarthritis (OA)” value with dogs is given as “reduced”. Besides, the “ability to mount delayed-type hypersensitivity responses” value with mice is listed as “inhibit”.

Take `CN(C)c1ccc(O)c2c1C[C@H]1C[C@H]3[C@H](N(C)C)C(=O)C(C(N)=O)=C(O)[C@@]3(O)C(=O)C1=C2O` [minocycline]: in the data set with IgE production [4], the “human IgE production” value is “suppresses”. In the data set with IgE production [5], the “murine IgE production” value is on record as “suppresses”. For the same molecule, in the data set with IgE production [1], the “human IgE production” value is given as “suppresses”. Moreover, in data set [2], the “anti-CD40 rhIL-4 mediated in vitro induction of IgE responses” value is on record as “suppress”. In addition, in [6], the oral corticosteroid requirements entry is recorded as “decreased”; the “symptoms (A.M. and P.M.)” value was “improved their symptoms”. The “severity of osteoarthritis (OA)” value with dogs was “reduced”. Besides, in data set [7], the “mitotic responses to phytohemagglutinin” value is on record as “inhibits”. The “inducible nitric oxide synthase (iNOS) expression” value in [8] is given as “inhibits”. Besides, the “therapy for early RA” value in data set [9] (RA patients) is listed as “appears to be an effective therapy”. The side effects result in data set [9] (mild and moderate RA patients) was “no side effects”.
